Laboratory results reported in article PMC12434670 (Journal of Medicinal Chemistry, 2025).
“Also recorded” adds a separate entry of the source. Read-outs that look alike come from different tables or passages of the source.

Legend:
[1] = system: A/H1N1 virus A/PR/8/34 (PR8); test: microbe, parasite or virus in culture; assay type: cell-based; settings: Influenza A virus, MDCK
in vitro = settings: dog
MDCK cells = settings: for Cytotoxicity MCC, Microscopy: dog
A/H1N1 virus = test: microbe, parasite or virus in culture; assay type: cell-based, influenza A virus; settings: for EC50: Influenza A virus, H1N1, MDCK, read-out: Antiviral EC50 against A/H1N1 virus
[2] = system: A/H1N1 virus A/Virginia/ATCC3/2009 (Virg09); test: microbe, parasite or virus in culture; assay type: cell-based, influenza A virus
[3] = system: H1 HA protein (strain A/California/06/09); assay type: biochemical, influenza A virus
H1 HA = H1 HA (Influenza A virus, UniProt C3W5S1); test: cell-based
[4] = system: H5 HA (strain A/duck/Hunan/795/2002); assay type: cell-based, influenza A virus
[5] = system: A/H1N1 (Virg09) pseudovirus; test: organism not typed; assay type: cell-based, influenza A virus; settings: for EC50: MDCK, 72 h, read-out: EC50 for A/H1N1 (Virg09) pseudovirus entry
[6] = system: A/H1N1 virus Virg09 in Calu-3 cells; test: microbe, parasite or virus in culture; assay type: cell-based; settings: Influenza A virus, H1N1, Calu-3, 72 h, read-out: EC50 in Calu-3 cells infected with Virg09
[7] = system: A/H5N1 (FL22, A/bald eagle/FL/W22-114/2022) pseudovirus; test: organism not typed; assay type: cell-based, influenza A virus; settings: read-out: EC50 for A/H5N1 (FL22) pseudovirus entry
A/H5N1 virus = settings: read-out: EC50 against A/H5N1 virus; cited from earlier work
A/H5N1 pseudovirus = settings: read-out: EC50 against A/H5N1 pseudovirus; cited from earlier work
[8] = read-out: Antiviral EC50 against A/H1N1 virus, PR8 strain, MTS
[9] = read-out: Antiviral EC50 against A/H1N1 virus, PR8 strain, Microscopy
[10] = Influenza A virus, MDCK, read-out: Antiviral EC50 against A/H1N1 virus, Virg09 strain, MTS
[11] = Influenza A virus, MDCK, read-out: Antiviral EC50 against A/H1N1 virus, Virg09 strain, Microscopy
[12] = read-out: Antiviral EC50 for PR8 virus
[13] = Influenza A virus, MDCK, read-out: Antiviral EC50 for Virg09 virus
[14] = read-out: Antiviral EC50 against A/H1N1 virus, Virg09 strain, MTS

H1 HA, sequence (C3W5S1 18-344 limits assumed): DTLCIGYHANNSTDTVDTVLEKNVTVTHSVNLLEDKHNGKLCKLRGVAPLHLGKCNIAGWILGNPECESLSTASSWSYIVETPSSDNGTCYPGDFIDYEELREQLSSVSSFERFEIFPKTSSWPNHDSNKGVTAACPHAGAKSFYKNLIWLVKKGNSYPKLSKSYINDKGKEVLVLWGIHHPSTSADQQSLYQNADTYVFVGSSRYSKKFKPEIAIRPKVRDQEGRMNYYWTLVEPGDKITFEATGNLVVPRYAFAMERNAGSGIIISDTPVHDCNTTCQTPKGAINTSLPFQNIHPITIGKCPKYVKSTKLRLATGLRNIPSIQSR
H1 HA, sequence (C3W5S1 345-566 limits assumed): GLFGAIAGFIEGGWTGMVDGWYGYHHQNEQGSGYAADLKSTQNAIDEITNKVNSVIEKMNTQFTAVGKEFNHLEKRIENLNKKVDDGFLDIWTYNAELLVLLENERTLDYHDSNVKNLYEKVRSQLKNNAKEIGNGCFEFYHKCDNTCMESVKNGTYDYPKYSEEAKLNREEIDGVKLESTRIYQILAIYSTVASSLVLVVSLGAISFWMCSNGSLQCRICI

Structure (SMILES)	EC50 [1, 8]	EC50 [1, 9]	CC50 (in vitro)	Cytotoxicity MCC, Microscopy (MDCK cells)	Antiviral activity against A/H1N1 virus (in words) (A/H1N1 virus)	EC50 [2, 10]	EC50 [2, 11]	EC50 [1, 12]	EC50 [2, 13]	further results
Cc1cc(CNC(=O)c2cc(C(F)(F)F)cc(Cl)c2F)c(C)s1 [Compound 37, 3-Chloro-N-((2,5-dimethylthiophen-3-yl)methyl)-2-fluoro-5-(trifluoromethyl)benzamide]	2900 nM	1600 ± 800 nM	> 100000 nM	56 ± 22 µM	less active	> 100000 nM	> 100000 nM	–	–	–
CC(C)c1ccccc1NCCN1CCCCC1 [RL-007, reference compound]	1400 nM	1500 ± 100 nM	33000 ± 5000 nM	>40 µM	–	610 ± 60 nM	690 ± 90 nM	–	–	Binding of H1 HA to stem antibody C179 after acidic incubation (pH 5.2) in presence of compound [3]: remained significantly higher; EC50 (H1 HA): 4100 nM; Inhibition of H5 HA cell-cell fusion at 6.3 μM [4]: inactive; Inhibition of H5 HA cell-cell fusion at 25 μM [4]: partially effective; Inhibition of H5 HA cell-cell fusion at 100 μM [4]: complete inhibition; Fold higher activity against A/H1N1 than A/H5N1 pseudovirus [5]: ~127 fold; EC50 [5]: 79 nM; EC50 [6]: 530 nM; EC50 ([7]; MDCK, 72 h): 10000 nM; EC50 (A/H1N1 virus): 600 to 1500 nM
Cc1cc(CNS(=O)(=O)c2ccc(C#N)cc2)c(C)s1 [Compound 21]	–	–	–	–	–	–	–	–	–	EC50 (A/H5N1 virus): 470 nM
Cc1cc(CNC(=O)c2cc(Br)cc(C(F)(F)F)c2)c(C)s1 [Compound 24, 3-Bromo-N-[(2,5-dimethylthiophen-3-yl)methyl]-5-(trifluoromethyl)benzamide]	–	–	–	–	abolished the antiviral activity	–	–	> 100000 nM	> 100000 nM	–
O=C(NCCc1cccs1)c1cc(F)cc(C(F)(F)F)c1 [Compound 20]	–	–	–	–	–	–	–	–	–	EC50 (A/H5N1 pseudovirus): 220 nM
Cc1cc(CNCc2cc(F)cc(C(F)(F)F)c2)c(C)s1 [Compound 64, 1-(2,5-Dimethylthiophen-3-yl)-N-(3-fluoro-5-(trifluoromethyl)benzyl)methanamine]	–	–	–	–	Neither the ester 63 nor the secondary amine 64 showed antiviral activity; also recorded: inactive	–	–	> 100000 nM	> 100000 nM	–
Cc1cc(C(=O)NCc2cc(F)cc(C(F)(F)F)c2)c(C)s1 [Compound 65, N-(3-Fluoro-5-(trifluoromethyl)benzyl)-2,5-dimethylthiophene-3-carboxamide]	–	–	–	–	fully inactive	–	–	> 100000 nM	> 100000 nM	–
Cc1cc(CNC(=O)c2cc(F)cc(C(F)(F)F)c2)c(C)s1 [Compound 22, N-[(2,5-Dimethylthiophen-3-yl)methyl]-3-fluoro-5-(trifluoromethyl)benzamide]	1100 ± 300 nM	1500 ± 600 nM	> 100000 nM	>100 µM	–	400 nM	1700 ± 1100 nM	~1000 nM	~1000 nM	Cytotoxicity at 100 μM (in words) (MDCK cells): without showing any cytotoxicity; Selectivity index (ratio of CC50 to EC50, SI) (A/H1N1 virus): > 100; ΔΔG (exp), change VF-57a → labelled compound [2]: 0.2 kcal/mol; ΔΔG (exp), change labelled compound → VF-57a [2]: –0.2 kcal/mol; EC50 [2, 14]: 440 ± 190 nM
Cc1cc(COC(=O)c2cc(F)cc(C(F)(F)F)c2)c(C)s1 [Compound 63, (2,5-Dimethylthiophen-3-yl)methyl 3-fluoro-5-(trifluoromethyl)benzoate]	–	–	–	–	Neither the ester 63 nor the secondary amine 64 showed antiviral activity; also recorded: inactive	–	–	> 100000 nM	> 100000 nM	–
Cc1cc(CNC(=O)c2cc(C(F)(F)F)cc(C(F)(F)F)c2)c(C)s1 [Compound 25, N-[(2,5-Dimethylthiophen-3-yl)methyl]-3,5-bis(trifluoromethyl)benzamide]	–	–	–	–	abolished the antiviral activity	–	–	> 100000 nM	> 100000 nM	–
Cc1cc(Cl)cc(C(=O)NCc2cc(C)sc2C)c1 [Compound 29, 3-Chloro-N-[(2,5-dimethylthiophen-3-yl)methyl]-5-methylbenzamide]	–	–	–	–	No activity	–	–	> 100000 nM	> 100000 nM	–
CCOC(=O)c1c(CSc2ccccc2)n(C)c2cc(Br)c(O)c(CN(C)C)c12 [Arbidol, reference compound]	–	–	–	–	–	–	–	–	–	Binding of H1 HA to stem antibody C179 after acidic incubation (pH 5.2) in presence of compound [3]: only slightly protected; Fold lower potency than VF-57a in pseudovirus entry [5]: ~20 fold; EC50 [5]: 15000 nM; EC50 ([7]; MDCK, 72 h): 10000 nM
Cc1cc(CNC(=O)c2cc(Cl)c(F)c(C(F)(F)F)c2)c(C)s1 [Compound 38, 3-Chloro-N-((2,5-dimethylthiophen-3-yl)methyl)-4-fluoro-5-(trifluoromethyl)benzamide]	270 ± 120 nM	1600 ± 800 nM	> 100000 nM	40 µM	good antiviral activity	100 nM	3100 ± 500 nM	–	–	ΔΔG (exp), change VF-57a → labelled compound [2]: –0.3 kcal/mol; ΔΔG (exp), change labelled compound → VF-57a [2]: 0.3 kcal/mol; EC50 [2, 14]: 180 ± 40 nM
Cc1cc(CNC(=O)c2cc(Cl)cc(C(F)(F)F)c2)c(C)s1 [Compound 23, 3-Chloro-N-[(2,5-dimethylthiophen-3-yl)methyl]-5-(trifluoromethyl)benzamide]	920 ± 190 nM	1100 ± 200 nM	> 100000 nM	>100 µM	–	300 nM	710 ± 450 nM	1000 nM	500 nM	Binding of H1 HA to stem antibody C179 after acidic incubation (pH 5.2) in presence of compound [3]: remained significantly higher; Effect of compound binding to HA (exposed to pH 7) on subsequent binding of antibody C179 ([3]; pH 7): no effect; EC50 (H1 HA): 950 nM; Inhibition of H5 HA cell-cell fusion at 6.3 μM [4]: partial; Inhibition of H5 HA cell-cell fusion at 25 μM [4]: almost complete; Inhibition of H5 HA cell-cell fusion at 100 μM [4]: complete inhibition; EC50 [5]: 300 nM; EC50 [6]: 840 nM; EC50 ([7]; MDCK, 72 h): 800 nM; EC50 [7]: 810 nM; EC50 (A/H1N1 virus): ~800 nM; EC50 [2, 14]: 310 ± 120 nM
O=C1c2c(O)c(=O)ccn2N([C@@H]2c3ccccc3SCc3c2ccc(F)c3F)[C@@H]2COCCN12 [BXA, baloxavir acid]	6.1 ± 1.7 nM	6.1 ± 2 nM	–	>0.1 µM	–	3.2 ± 0.4 nM	3.5 nM	–	–	EC50 [6]: 1.1 nM
Cc1cc(CNC(=O)c2cc(Cl)cc(C(F)(F)F)c2Cl)c(C)s1 [Compound 39, 2,5-Dichloro-N-((2,5-dimethylthiophen-3-yl)methyl)-3-(trifluoromethyl)benzamide]	5900 ± 3200 nM	11000 ± 6000 nM	> 100000 nM	52 ± 25 µM	less active	820 ± 610 nM	8100 ± 500 nM	–	–	–
